Laboratory results reported in ChEMBL document CHEMBL1201862, “PubChem BioAssay data set” (2004).
Activity calls are given as the source filed them.

Columns and labels:
[1] = target: T1, Carboxy-terminal domain RNA polymerase II polypeptide A small phosphatase 1 (Homo sapiens, UniProt Q9GZU7); assay: CTDSP1 inhibitors, concentration-response, biochemical, absorbance readout, ultra-high-throughput screen actives (AID 540297); format: functional
T1 sequence (Q9GZU7 whole entry): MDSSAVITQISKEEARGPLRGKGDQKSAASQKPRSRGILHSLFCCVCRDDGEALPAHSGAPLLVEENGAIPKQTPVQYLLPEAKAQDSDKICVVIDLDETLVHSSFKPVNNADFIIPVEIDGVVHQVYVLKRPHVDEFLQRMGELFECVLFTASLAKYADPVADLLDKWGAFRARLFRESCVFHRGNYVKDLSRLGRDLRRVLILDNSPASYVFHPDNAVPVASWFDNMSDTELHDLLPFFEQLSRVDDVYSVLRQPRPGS

Protein RecA = target: T2, Protein RecA (Mycobacterium tuberculosis, UniProt P9WHJ3); assay: Fluorescence Cell-Free Homogeneous Dose Retest to Identify Inhibitors of RecA-Intein Splicing Activity. [Related pubchem assays (depositor defined):AID2097, AID2223, AID489010, AID492950]; format: functional
T2 sequence (P9WHJ3 whole entry): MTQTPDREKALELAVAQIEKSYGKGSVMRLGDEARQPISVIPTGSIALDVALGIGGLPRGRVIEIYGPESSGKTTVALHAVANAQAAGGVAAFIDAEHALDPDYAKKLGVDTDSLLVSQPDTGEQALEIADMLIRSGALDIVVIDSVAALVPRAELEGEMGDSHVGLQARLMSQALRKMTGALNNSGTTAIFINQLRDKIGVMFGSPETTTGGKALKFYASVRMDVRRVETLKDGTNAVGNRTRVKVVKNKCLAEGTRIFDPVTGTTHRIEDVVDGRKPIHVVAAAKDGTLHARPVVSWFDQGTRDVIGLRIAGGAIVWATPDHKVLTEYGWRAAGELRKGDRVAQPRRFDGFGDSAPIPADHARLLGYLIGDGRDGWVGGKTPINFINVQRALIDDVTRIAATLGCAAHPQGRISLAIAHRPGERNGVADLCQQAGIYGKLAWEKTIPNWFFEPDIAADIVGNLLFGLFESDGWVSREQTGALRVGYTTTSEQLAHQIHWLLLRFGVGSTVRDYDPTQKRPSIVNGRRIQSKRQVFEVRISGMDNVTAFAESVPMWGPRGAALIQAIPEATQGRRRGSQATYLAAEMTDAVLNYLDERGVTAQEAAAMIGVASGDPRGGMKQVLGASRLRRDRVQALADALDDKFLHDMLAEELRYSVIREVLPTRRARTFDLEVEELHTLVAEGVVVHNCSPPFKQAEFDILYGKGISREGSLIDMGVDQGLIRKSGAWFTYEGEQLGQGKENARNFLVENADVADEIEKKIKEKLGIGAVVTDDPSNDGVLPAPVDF

[2] = target: T3, Replicative DNA helicase DnaB (Mycobacterium tuberculosis, UniProt P9WMR3); assay: DnaB intein splicing inhibitors, dose response, biochemical, cell-free fluorescence (AID 449749); format: functional
T3 sequence (P9WMR3 whole entry): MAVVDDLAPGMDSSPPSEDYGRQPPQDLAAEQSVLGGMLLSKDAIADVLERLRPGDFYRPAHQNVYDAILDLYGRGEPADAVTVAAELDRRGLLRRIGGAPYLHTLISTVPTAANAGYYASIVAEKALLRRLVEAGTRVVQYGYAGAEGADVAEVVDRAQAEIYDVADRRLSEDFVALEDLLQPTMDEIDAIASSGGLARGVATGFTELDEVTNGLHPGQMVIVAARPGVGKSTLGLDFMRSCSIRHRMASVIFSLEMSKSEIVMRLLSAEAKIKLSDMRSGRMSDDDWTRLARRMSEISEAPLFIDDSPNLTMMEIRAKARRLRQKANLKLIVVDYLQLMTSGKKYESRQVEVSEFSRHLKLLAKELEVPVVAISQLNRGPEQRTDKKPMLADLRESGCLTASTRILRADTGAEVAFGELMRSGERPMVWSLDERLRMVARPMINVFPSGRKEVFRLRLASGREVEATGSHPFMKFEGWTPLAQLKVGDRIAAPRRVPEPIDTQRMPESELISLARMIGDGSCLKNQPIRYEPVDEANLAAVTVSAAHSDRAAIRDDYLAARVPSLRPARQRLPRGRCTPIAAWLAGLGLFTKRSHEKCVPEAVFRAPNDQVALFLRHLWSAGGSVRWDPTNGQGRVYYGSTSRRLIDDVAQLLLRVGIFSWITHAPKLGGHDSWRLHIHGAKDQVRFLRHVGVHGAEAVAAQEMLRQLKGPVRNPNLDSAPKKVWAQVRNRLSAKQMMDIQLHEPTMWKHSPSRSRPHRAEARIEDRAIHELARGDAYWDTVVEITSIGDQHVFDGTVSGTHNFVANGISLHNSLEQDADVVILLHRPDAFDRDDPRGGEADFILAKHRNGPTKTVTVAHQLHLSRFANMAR

BJ [3] = assay: BJ-TERT-LT-ST fibroblast viability loss – cell-based, RAS-independent, luminescence, dose response (AID 1935); format: functional; settings: Homo sapiens;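 further: BJ fibroblasts immortalized with TERT plus LT and ST oncogenes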
BJ [4] = assay: BJ-TERT fibroblast viability loss – cell-based, RAS-independent, luminescence, dose response (AID 1933); format: functional; settings: Homo sapiens
[5] = DRD fibroblast viability loss – cell-based, non-viral oncogenic, luminescence, dose response (AID 1934); format: functional; settings: Homo sapiens
BJ [6] = assay: cells; format: functional, cell-based; settings: Homo sapiens
[7] = P. falciparum Dd2 growth inhibitors, dose response, SYBR Green, cherry-picked samples (AID 1159567); format: functional, cell-based
[8] = Luminescence Cell-Based Dose Response HTS to Identify Activators of Luciferase Translation or Activity in H4 […] Cells. [Related pubchem assays: 1829 (Project Summary), 1814 (Primary HTS)]; format: functional
H4 = assay: Luminescence Cell-Based Dose Response HTS to Identify Activators of 5'UTR Stem-Loop Driven Prion Protein mRNA Translation in H4 Neuroglioblastoma Cells. [Related pubchem assays: 1829 (Project Summary), 1814 (Primary HTS)]; format: functional; settings: Homo sapiens
[9] = Luminescence Cell-Based Dose Confirmation HTS to Identify Activators of 5'UTR Stem-Loop Driven Alpha-Synuclein mRNA Translation in H4 Neuroglioblastoma Cells. [Related pubchem assays: 1829 (Project Summary), 1814 (Primary HTS)]; format: functional

Compound | IC50 [1] | EC50 (Protein RecA) | AC50 [2] | further results
CCCc1n(CC(O)COC2CCCCC2)c2ccccc2[n+]1C (stereo not drawn) | 14.3 µM (active) | – | – | –
COc1ccc(C(=O)C2C(c3ccc(-c4ccccc4[N+](=O)[O-])o3)NC(=O)NC2(O)C(F)(F)F)cc1 (stereo not drawn) | – | 21.5 µM (active) | 14.6 µM (active) | –
Cc1cc(C)c2nc3sc(C(=O)N4CCOCC4)c(N)c3cc2c1 | – | – | – | EC50 (BJ [3]): 26 µM (active); EC50 (BJ [4]): 2.52 µM (active); EC50 [5]: 2.62 µM (active); EC50 (BJ [6]): 2.64 µM (active)
CC1CCC(NC(=O)Cn2c(=O)oc3cc(S(=O)(=O)N4CCCC4)ccc32)CC1 (stereo not drawn) | 25.5 µM (active) | – | – | –
Cc1nn(-c2ccccc2)c2c1C(c1ccco1)C(C#N)=C(N)O2 (stereo not drawn) | – | 4.03 µM (active) | 5.88 µM (active) | –
COc1ccc(NC(=O)N(C)C[C@H]2Oc3ccc(NC(=O)Nc4ccc(C(F)(F)F)cc4)cc3CC(=O)N([C@H](C)CO)C[C@@H]2C)cc1 | – | – | – | AC50 [7]: 3.41 µM (active)
CCOc1cc(/C=N/NC(=O)CSc2nnc(C)s2)ccc1OCc1ccccc1Cl | 10.1 µM (active) | – | – | –
O=C(c1ccc(F)cc1)N1CC(=O)N2[C@H](CO)[C@@H](c3ccc(C#Cc4ccc(F)cc4)cc3)[C@@H]2C1 | – | – | – | AC50 [7]: 5.03 µM (active)
C/C(CC(=O)Nc1cccnc1)=N\NC(=O)c1ccc([N+](=O)[O-])c(Cl)c1 | – | 4.18 µM (active) | 20.4 µM (active) | –
CC(O)/C=C/c1cccc[n+]1C (stereo not drawn) | 12.2 µM (active) | – | – | –
c1ccc(CN2C[C@@H]3N[C@H](C2)[C@H]3c2ccc(-c3ccncc3)cc2)cc1 | – | – | – | AC50 [7]: 9.92 µM (active)
Cc1ccc(NC(=O)c2cnc(SCC(=O)NCC3CCCO3)n(C)c2=O)cc1 (stereo not drawn) | – | 30.9 µM (active) | 10.1 µM (active) | –
CCOC(=O)CSCC(=O)N1N=C(c2cccs2)CC1c1ccc(F)cc1 (stereo not drawn) | – | 15.1 µM (active) | 17.7 µM (active) | –
CCCN1C[C@@H](C)[C@H](OC)CN(C)C(=O)c2ccc(NC(=O)c3ccc4c(c3)OCO4)cc2OC[C@H]1C | – | – | – | AC50 [7]: 3.45 µM (active)
Cc1ccc(-n2nc(C)c3c2OC(N)=C(C#N)C3c2ccc(F)cc2)cc1 (stereo not drawn) | – | 6.09 µM (active) | 14.2 µM (active) | EC50 [8]: > 120 µM (not active); EC50 (H4): > 120 µM (not active); EC50 [9]: > 120 µM (not active)
O=C(N/N=C/c1ccc(OC(=O)c2cccs2)cc1)c1ccc(F)cc1 | > 80 µM (inactive) | – | – | –
CCC1=Nc2cc(C(=O)O)ccc2Sc2ccc(Cl)cc21 | – | – | – | EC50 (BJ [3]): > 150 µM (not active); EC50 (BJ [4]): > 150 µM (not active); EC50 [5]: > 150 µM (not active); EC50 (BJ [6]): > 150 µM (not active)
C/C=C/c1ccc2c(c1)[C@@H]1[C@@H](CCN1C(=O)C1CCCC1)[C@H](CO)N2 | – | – | – | AC50 [7]: 12.7 µM (active)
O=C(COc1ccc(-n2cnnn2)cc1)Nc1cccc(Cl)c1Cl | 6.36 µM (active) | – | – | –
COc1ccc2c3c([nH]c2c1)[C@H](CO)N(C(=O)Nc1ccc(F)cc1)CC31CCN(C(=O)c2ccccn2)CC1 | – | – | – | AC50 [7]: 12.4 µM (active)
CC(C)Oc1cccc(C(=O)C2CCCN(C(=O)c3csnn3)C2)c1 (stereo not drawn) | – | > 380 µM (inactive) | > 380 µM (inactive) | –
Cn1c(SCC(=O)NC(=O)NCc2ccco2)nnc1-c1ccccc1 | 6.39 µM (active) | – | – | –
